Measured values from patent US9221833B2, “Antiviral compounds” (GILEAD PHARMASSET LLC, priority 2011, dated 2015).
Read-outs that look alike come from different tables or passages of the source.

Legend:
Format in all cases: cell-based, HCV
[1] = tested on: genotype 2a JFH-1 replicon (L31 present in NS5A); test: microbe, parasite or virus in culture; settings: Hepatitis C virus, read-out: 2a JFH
[2] = tested on: genotype 3a S52 strain NS5A gene; test: Replicon assay, NS5A chimeric 1b Con1 replicon with 3a NS5A, transiently transfected Huh-Lunet cells; settings: Hepatitis C virus
Protocol: (§1) Evaluation of cell-based anti-HCV activity: Antiviral potency (EC50) was determined using a Renilla luciferase (RLuc)-based HCV replicon reporter assay. […] To perform the assay for genotype 2a (with M31 present in NS5A) or 2b, NS5A chimeric genotype 2a JFH-1 replicons that encodes a RLuc-Neo reporter and either genotype 2a J6 strain NS5A gene or genotype 2b MD2b-1 strain NS5A gene (both with M31 present) respectively, were either transiently transfected (t) into Huh-Lunet cells or were established as stably replicating replicon cells (s) is provided. Either cells were dispensed into 384-well plates for EC50 assays. To perform the assay for genotype 3 and 4, NS5A chimeric genotype 1b Con1 replicons that encodes a Pi-RLuc reporter and either genotype 3a S52 strain NS5A gene or genotype 4a ED43 strain NS5A gene respectively, were transiently transfected (t) into Huh-Lunet cells, which were subsequently dispensed into 384-well plates. Compounds were dissolved in DMSO at a concentration of 10 mM and diluted in DMSO either manually or using an automated pipeting instrument. Serially 3-fold diluted compounds were either manually mixed with cell culture media and added to the seeded cells or directly added to the cells using an automated instrument. […] 72 hours later, cells were lysed and Renilla luciferase activity quantified as recommended by the manufacturer (Promega-Madison, Wis.). Non-linear regression was performed to calculate EC50 values.

[3] = tested on: genotype 4a ED43 strain NS5A gene; test: Replicon assay, NS5A chimeric 1b Con1 replicon with 4a NS5A, transiently transfected Huh-Lunet cells; settings: Hepatitis C virus
Protocol: as §1, with “[…],” for “were transiently transfected (t) into Huh-Lunet cells,”

[4] = tested on: genotype 2a J6 strain NS5A gene (M31 present); test: Replicon assay, NS5A chimeric 2a JFH-1 replicon with 2a J6 NS5A, transient (t) or stable (s), Huh-Lunet cells; settings: Hepatitis C virus
Protocol: as §1

genotype 1a H77 replicon = test: microbe, parasite or virus in culture; settings: Hepatitis C virus
Protocol: as §1

[5] = tested on: genotype 2b MD2b-1 strain NS5A gene (M31 present); test: microbe, parasite or virus in culture; settings: Hepatitis C virus
Protocol: as §1

Q30R in genotype 1a NS5A = test: Antiviral potency against resistance mutant, 1a Pi-Rluc replicon in Huh-7-derived cured-51 cells; settings: Hepatitis C virus
Protocol: as §1
To determine the antiviral potency (EC50) against resistance mutants, resistance mutations, including M28T, Q30R, Q30H, L31M, and Y93C in genotype 1a NS5A and Y93H in genotype 1b NS5A, were introduced individually into either 1a Pi-Rluc or 1b Pi-Rluc replicons by site directed mutagenesis. Replicon RNA of each resistant mutant was transiently transfected into Huh-7-derived cured-51 cells and antiviral potency was determined on these transfected cells as described above.

[6] = tested on: genotype 2a JFH-1 replicon (L31 present in NS5A); test: microbe, parasite or virus in culture; settings: Hepatitis C virus, read-out: 2a JFH (nM)
Protocol: as §1

| SMILES | EC50 [1] | EC50 ([2]; read-out: 3a) | EC50 ([2]; read-out: 3a (nM)) | EC50 ([3]; read-out: 4a) | EC50 ([3]; read-out: 4a (s) (nM)) | EC50 ([4]; read-out: 2a J6) | EC50 (genotype 1a H77 replicon; read-out: 1a) | EC50 ([5]; read-out: 2b) | EC50 ([5]; read-out: 2b (s) (nM)) | EC50 (Q30R in genotype 1a NS5A; read-out: 1a Q30R) | EC50 [6] | EC50 ([4]; read-out: 2a J6 (t) (nM)) | EC50 (genotype 1a H77 replicon; read-out: 1a (nM)) | EC50 ([5]; read-out: 2b (t) (nM)) | EC50 (Q30R in genotype 1a NS5A; read-out: 1a Q30R (nM)) |
| --- | --- | --- | --- | --- | --- | --- | --- | --- | --- | --- | --- | --- | --- | --- | --- |
| COC(=O)N[C@H](C(=O)N1CCC[C@H]1c1ncc(-c2ccc3c(c2)COc2cc4c(cc2-3)CCc2[nH]c([C@@H]3CCCN3C(=O)[C@H](NC(=O)OC)c3ccccc3)nc2-4)[nH]1)C(C)C [Example MG] | < 1 nM | < 1 nM | 0.01 nM | < 1 nM | 0.08 nM | < 1 nM | < 1 nM | < 1 nM | 0.07 nM | < 1 nM |  |  |  |  |  |
| COC[C@H]1C[C@@H](c2nc3ccc4cc5c(cc4c3[nH]2)OCc2cc(-c3cnc([C@@H]4CCCN4C(=O)[C@H](NC(=O)OC)c4ccccc4)[nH]3)ccc2-5)N(C(=O)[C@@H](NC(=O)OC)C(C)OC)C1 (stereo partly drawn) [Example OU, Methyl {(1R)-2-[(2S)-2-(5-{2-[(2S,4S)-1-{(2S)-2-[(methoxycarbonyl)amino]-3-methoxybutanoyl}-4-(methoxymethyl)pyrrolidin-2-yl]-1,11-dihydroisochromeno[4′,3′:6,7]naphtho[1,2-d]imidazol-9-yl}-1H-imidazol-2-yl)pyrrolidin-1-yl]-2-oxo-1-phenylethyl}carbamate] | < 1 nM |  |  |  |  |  | < 1 nM | < 1 nM |  |  |  |  |  |  |  |
| CC[C@@H](C)[C@H](NC(=O)OC)C(=O)N1C[C@@H](C)C[C@H]1c1ncc(-c2ccc3c(c2)COc2cc4c(ccc5nc([C@@H]6C[C@H](COC)CN6C(=O)[C@H](NC(=O)OC)c6ccccc6)[nH]c54)cc2-3)[nH]1 [Example QB, Methyl {(1R)-2-[(2S,4S)-2-(9-{2-[(2S,4S)-1-{(2S,3R)-2-[(methoxycarbonyl)amino]-3-methylpentanoyl}-4-methylpyrrolidin-2-yl]-1H-imidazol-5-yl}-1,11-dihydroisochromeno[4′,3′:6,7]naphtho[1,2-d]imidazol-2-yl)-4-(methoxymethyl)pyrrolidin-1-yl]-2-oxo-1-phenylethyl}carbamate] | < 1 nM | < 1 nM |  |  |  | < 1 nM | < 1 nM | < 1 nM |  | < 1 nM | 0.008 nM |  |  |  |  |
| COC[C@H]1CC(c2ncc(-c3ccc4c(c3)COc3cc5c(ccc6nc([C@@H]7CC[C@H](C)N7C(=O)[C@@H](NC(=O)OC)C(C)C)[nH]c65)cc3-4)[nH]2)N(C(=O)[C@@H](NC(=O)OC)C(C)OC)C1 (stereo in doubt) [Example QA, Methyl {(2S)-1-[(2S,5S)-2-(9-{2-[(2S,4S)-1-{(2S,3S)-3-methoxy-2-[(methoxycarbonyl)amino]butanoyl}-4-(methoxymethyl)pyrrolidin-2-yl]-1H-imidazol-5-yl}-1,11-dihydroisochromeno[4′,3′:6,7]naphtho[1,2-d]imidazol-2-yl)-5-methylpyrrolidin-1-yl]-3-methyl-1-oxobutan-2-yl}carbamate] | < 1 nM | < 1 nM |  |  |  | < 1 nM | < 1 nM | < 1 nM | 0.04 nM | < 1 nM | 0.007 nM |  |  |  |  |
| COC(=O)N[C@H](C(=O)N1CCC[C@H]1c1nc2c(ccc3cc4c(cc32)OCc2cc(-c3cnc([C@@H]5CCCN5C(=O)[C@H](NC(=O)OC)c5ccccc5)[nH]3)ccc2-4)[nH]1)C(C)C [Example MD] | < 1 nM | < 1 nM | 0.006 nM | < 1 nM |  | < 1 nM | < 1 nM | < 1 nM |  | < 1 nM | 0.006 nM |  |  |  |  |
| CCC(C)[C@H](NC(=O)OC)C(=O)N1C[C@@H](C)CC1c1ncc(-c2ccc3c(c2)COc2cc4c(ccc5nc([C@@H]6C[C@H](COC)CN6C(=O)[C@@H](NC(=O)OC)C(C)C)[nH]c54)cc2-3)[nH]1 (stereo in doubt) [Example QC, Methyl {(2S)-1-[(2S,4S)-2-(9-{2-[(2S,4S)-1-{(2S,3R)-2-[(methoxycarbonyl)amino]-3-methylpentanoyl}-4-methylpyrrolidin-2-yl]-1H-imidazol-5-yl}-1,11-dihydroisochromeno[4′,3′:6,7]naphtho[1,2-d]imidazol-2-yl)-4-(methoxymethyl)pyrrolidin-1-yl]-3-methyl-1-oxobutan-2-yl}carbamate] | < 1 nM |  |  |  |  | < 1 nM | < 1 nM | < 1 nM |  |  | 0.008 nM |  |  |  |  |
| COC(=O)N[C@H](C(=O)N1CCC[C@H]1c1nc2c([nH]1)CCc1cc3c(cc1-2)OCc1cc(-c2cnc([C@@H]4CCCN4C(=O)[C@H](NC(=O)OC)c4ccccc4)[nH]2)ccc1-3)C(C)C [Example MF, methyl [1-(2-{5-[2-(1-{[(methoxycarbonyl)amino]-3-methyl-1-oxobutan-2-yl}pyrrolidin-2-yl)-1,4,5,11-tetrahydroisochromeno[4′,3′:6,7]naphtho[1,2-d]imidazol-9-yl]-1H-imidazol-2-yl}pyrrolidin-1-yl)-phenyl-1-oxoacet-2-yl]carbamate] | < 1 nM | < 1 nM |  | < 1 nM |  | < 1 nM | < 1 nM | < 1 nM |  | < 1 nM |  |  |  |  |  |
| COC[C@H]1C[C@@H](c2ncc(-c3ccc4c(c3)COc3cc5c(ccc6nc([C@@H]7CCCN7C(=O)[C@H](NC(=O)OC)c7ccccc7)[nH]c65)cc3-4)[nH]2)N(C(=O)[C@@H](NC(=O)OC)C(C)C)C1 [Example PH, methyl {(2S)-1-[(2S,4S)-2-(5-{2-[(2S)-1-{(2R)-2-[(methoxycarbonyl)amino]-2-phenylacetyl}pyrrolidin-2-yl]-1,11-dihydroisochromeno[4′,3′:6,7]naphtho[1,2-d]imidazol-9-yl}-1H-imidazol-2-yl)-4-(methoxymethyl)pyrrolidin-1-yl]-3-methyl-1-oxobutan-2-yl}carbamate] | < 1 nM | < 1 nM | 0.029 nM |  |  | < 1 nM | < 1 nM | < 1 nM |  | < 1 nM | 0.014 nM | 0.055 nM | 0.024 nM | 0.042 nM | 0.051 nM |
| CC[C@@H](C)C(NC(=O)OC)C(=O)N1C[C@@H](COC)C[C@H]1c1nc2ccc3cc4c(cc3c2[nH]1)OCc1cc(-c2cnc([C@@H]3C[C@H](C)CN3C(=O)[C@@H](NC(=O)OC)[C@H](C)CC)[nH]2)ccc1-4 (stereo partly drawn) [Example QE, Methyl {(3R)-1-[(2S,4S)-2-(9-{2-[(2S,4S)-1-{(2S,3R)-2-[(methoxycarbonyl)amino]-3-methylpentanoyl}-4-methylpyrrolidin-2-yl]-1H-imidazol-5-yl}-1,11-dihydroisochromeno[4′,3′:6,7]naphtho[1,2-d]imidazol-2-yl)-4-(methoxymethyl)pyrrolidin-1-yl]-3-methyl-1-oxopentan-2-yl}carbamate] | < 1 nM |  |  |  |  | < 1 nM | < 1 nM | < 1 nM |  |  |  |  |  |  |  |
